Assay results reported in PMC5442318, “Hundreds of dual-stage antimalarial molecules discovered by a functional gametocyte screen” (Nature Communications, 2017).

Experiments:
[1] = test system: P. falciparum stage V female gametocytes; assay: P. falciparum female gametocyte activation assay (Pf FGAA), 24 h or 48 h preincubation, Pfs25 expression readout; type: cell-based, Plasmodium falciparum NF54; details: mean; read-out: Gametocytes mean Pf FGAA IC50
Method in brief: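 Female activation, triggered by xanthurenic acid and cooling, was scored by imaging Cy3-labelled anti-Pfs25 female gametes after 24 h at 26 °C. Beforehand, purified NF54 stage V gametocytes had been incubated with compound for either 24 h or 48 h (37 °C, 3% O2). Values are pIC50 from full-curve regression.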

[2] = test system: P. falciparum stages IV–V gametocytes; assay: Gametocytocidal ATP-depletion assay (gametocyte ATP bioluminescence); type: cell-based, Plasmodium falciparum
Method in brief: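 Read-out is luciferase luminescence of parasite ATP (BacTiter-Glo), standing in for viability. Double-purified mature stage IV–V gametocytes, 12,500 per well, were exposed 48 h at 37 °C in low-O2 gas; screening concentration 2 μM.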

HepG2 cells = assay: HepG2 cytotoxicity assay; type: cell-based; details: mean
Method in brief: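 Luminescent read-out (CellTiter-Glo) taken 10 min after reagent addition at RT; plates and reagent pre-equilibrated 30 min at RT.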

[3] = test system: P. falciparum asexual blood stages; details: TCAMS data; ref 1 (Gamo et al., 2010); read-out: Pf Asexual blood stages XC50; cited from earlier work

Compound	IC50 [1] [nM]	Gametocytes mean ATP inhibition at 2µM (%) [2] [%]	HepG2 cells mean TOX50 (HepG2 cells) [µM]	IC50 [3] [nM]
Clc1cccc(C23N=C(Nc4nc5ccccc5[nH]4)NC2(c2ccccc2)NC(Nc2nc4ccccc4[nH]2)=N3)c1 (stereo not drawn) [TCMDC-139089]	150	71.66	42.76	520
c1ccc(-c2nc(Nc3nc4ccccc4[nH]3)[nH]c2-c2ccccc2)cc1 [TCMDC-139099]	580	51.90	10.98	620
Cc1cc2nc(N=C3NC4(c5ccccn5)NC(=Nc5nc6cc(C)c(C)cc6[nH]5)NC4(c4ccccn4)N3)[nH]c2cc1C.O=C(O)C(F)(F)F (stereo not drawn) [TCMDC-139105]	5340	33.60	35.91	680
C=C[C@H]1CN(CCCCCCC)CC[C@H]1CCNc1ccnc2ccc(OC)cc12 [TCMDC-139204]	1800	31.13	2.24	60
CC(NCCc1cccc(Cl)c1)C(O)c1ccc(OCCCCCCOc2ccc(C(O)C(C)NCCc3cccc(Cl)c3)cc2)cc1 (stereo not drawn) [TCMDC-139334]	1000	41.15	2.63	400
Cc1cc(N)c2cc(NC(=O)/C=C/c3ccc([N+](=O)[O-])cc3)ccc2n1 [TCMDC-139335]	2690	-7.69	5.37	670
Cc1cc(N)c2cc(NC(=O)c3cc(C(F)(F)F)cc(C(F)(F)F)c3)ccc2n1.Cl [TCMDC-139377]	860	0.86	2.60	90
COc1ccc2nc(N=C3NC4(c5ccccc5)NC(=Nc5nc6ccc(OC)cc6[nH]5)NC4(c4ccccc4)N3)[nH]c2c1.O=C(O)C(F)(F)F (stereo not drawn) [TCMDC-139632]	120	67.82	62.72	200
CC(Cc1ccc(CNC(=O)c2ccc(CC(C)NCCc3cccc(Cl)c3)cc2)cc1)NCCc1cccc(Cl)c1 (stereo not drawn) [TCMDC-139659]	860	-0.70	2.26	700
CC(=O)N(Cc1ccc(CC(C)NCCc2cccc(Cl)c2)cc1)Cc1ccc(CC(C)NCCc2cccc(Cl)c2)cc1 (stereo not drawn) [TCMDC-139678]	810	14.97	2.85	780
c1cc(Nc2nc(-c3ccc(-c4csc(Nc5ccncc5)n4)cc3)cs2)ccn1 [TCMDC-139725]	30	93.92	2.26	120
CC(Cc1ccc(C(=O)Nc2ccc(CC(C)NCCc3cccc(Cl)c3)cc2)cc1)NCCc1ccc(C(F)(F)F)cc1 (stereo not drawn) [TCMDC-139790]	1010	57.11	4.13	570
CC(Cc1ccc(NS(=O)(=O)c2ccc(CC(C)NCCc3cccc(Cl)c3)cc2)cc1)NCCc1cccc(Cl)c1 (stereo not drawn) [TCMDC-139797]	1840	-2.49	4.37	770
CC(CCCCCC(=O)Nc1ccc(CC(C)NCCc2cccc(Cl)c2)cc1)NCCc1cccc(Cl)c1 (stereo not drawn) [TCMDC-139800]	1390	20.09	2.55	950
CCOc1ccccc1CCNC(C)Cc1ccc(C(=O)Nc2ccc(CC(C)NCCc3cccc(Cl)c3)cc2)cc1 (stereo not drawn) [TCMDC-139805]	1390	17.68	3.24	540
CCCCCCCN1CC[C@@H](CCCc2ccnc3ccc(OCCN4CCNCC4)cc23)[C@@H](CC)C1.Cl [TCMDC-139817]	1860	8.71	4.90	770
CC(Cc1ccc(NC(=O)c2ccc(CNCCCCc3ccccc3)cc2)cc1)NCCc1cccc(Cl)c1.Cl (stereo not drawn) [TCMDC-139866]	1120	18.31	1.97	330
CC(Cc1ccc(NC(=O)c2ccc(CNCCc3ccccc3)cc2)cc1)NCCc1cccc(Cl)c1.Cl (stereo not drawn) [TCMDC-139867]	2070	10.73	4.17	350
